Data: the supplement of paper PMC10307832

Key:
Test in all cases: relative viability (nuclei count vs DMSO), 5 days (fraction); higher = more cells survive
Lapatinib + Foretinib = compound: CS(=O)(=O)CCNCc1ccc(-c2ccc3ncnc(Nc4ccc(OCc5cccc(F)c5)c(Cl)c4)c3c2)o1 [Lapatinib] + COc1cc2c(Oc3ccc(NC(=O)C4(C(=O)Nc5ccc(F)cc5)CC4)cc3F)ccnc2cc1OCCCN1CCOCC1 [Foretinib] (partner 0.25 µM)
Method in brief: (§1)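 Nuclei were stained with Hoechst during a one-step fixation (final 0.05% Triton X-100, 1% formaldehyde, 1 ug/ml Hoechst) carried out 5 days after dosing, then counted on 4× images. The cells, lung cancer lines in 1536-well plates, had been dosed by pin tool the day after seeding with one drug alone or a fixed anchor-drug dose plus five library-drug doses (not always all listed) in √10 steps. Relative viability is the nuclei count in treated wells divided by that in vehicle wells, and each value is the median of duplicate plates.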

Wnt-C59 + Trametinib = compound: CC1=NC=CC(=C1)C2=CC=C(C=C2)CC(=O)NC3=CC=C(C=C3)C4=CN=CC=C4 [Wnt-C59] + CC(=O)Nc1cccc(-n2c(=O)n(C3CC3)c(=O)c3c(Nc4ccc(I)cc4F)n(C)c(=O)c(C)c32)c1 [Trametinib] (partner 0.02 µM)
Method in brief: as §1

Wnt-C59 + Olaparib = compound: CC1=NC=CC(=C1)C2=CC=C(C=C2)CC(=O)NC3=CC=C(C=C3)C4=CN=CC=C4 [Wnt-C59] + O=C(c1cc(Cc2n[nH]c(=O)c3ccccc23)ccc1F)N1CCN(C(=O)C2CC2)CC1 [Olaparib] (partner 8 µM)
Method in brief: as §1

Lapatinib + AZD7762 = compound: CS(=O)(=O)CCNCc1ccc(-c2ccc3ncnc(Nc4ccc(OCc5cccc(F)c5)c(Cl)c4)c3c2)o1 [Lapatinib] + NC(=O)Nc1cc(-c2cccc(F)c2)sc1C(=O)N[C@H]1CCCNC1 [AZD7762] (partner 0.2 µM)
Method in brief: as §1

Row | Cell Line | relative viability (Lapatinib + Foretinib; first compound 0.02 µM) | relative viability (Lapatinib + Foretinib; first compound 0.06325 µM) | relative viability (Lapatinib + Foretinib; first compound 0.2 µM) | relative viability (Lapatinib + Foretinib; first compound 0.6325 µM) | relative viability (Lapatinib + Foretinib; first compound 2 µM) | relative viability (Wnt-C59 + Trametinib; first compound 0.001 µM) | relative viability (Wnt-C59 + Trametinib; first compound 0.01 µM) | relative viability (Wnt-C59 + Trametinib; first compound 0.03162 µM) | relative viability (Wnt-C59 + Trametinib; first compound 0.1 µM) | relative viability (Wnt-C59 + Olaparib; first compound 0.001 µM) | relative viability (Wnt-C59 + Olaparib; first compound 0.01 µM) | relative viability (Wnt-C59 + Olaparib; first compound 0.03162 µM) | relative viability (Wnt-C59 + Olaparib; first compound 0.1 µM) | relative viability (Lapatinib + AZD7762; first compound 0.02 µM) | relative viability (Lapatinib + AZD7762; first compound 0.06325 µM) | relative viability (Lapatinib + AZD7762; first compound 0.2 µM) | relative viability (Lapatinib + AZD7762; first compound 0.6325 µM) | relative viability (Lapatinib + AZD7762; first compound 2 µM)
1 | RERF-LC-KJ | 0.887 | 0.794 | 0.924 | 0.85 | 0.759 | 0.936 | 0.884 | 0.962 | 0.753 | 0.787 | 0.846 | 1.12 | 0.877 | 0.391 | 0.936 | 0.717 | 0.877 | 0.707
2 | EMC-BAC-2 | 0.953 | 0.844 | 0.969 | 0.86 | 0.857 | 0.797 | 0.697 | 0.793 | 0.713 | 0.497 | 0.488 | 0.486 | 0.482 |  | 0.938 | 1.05 | 1.13 | 1.18
3 | NCI-H522 |  |  |  |  |  | 0.786 | 0.741 | 0.829 | 0.752 | 0.694 | 0.74 | 0.565 | 0.581 |  | 0.731 | 0.845 | 1.07 | 0.612
4 | NCI-H1651 | 0.716 | 0.776 | 0.764 | 0.695 | 0.611 | 0.857 | 0.875 | 0.783 | 0.773 | 0.202 | 0.164 | 0.203 | 0.184 | 0.468 | 0.451 | 0.337 | 0.41 | 0.402
5 | IA-LM | 1.08 | 1.13 | 1.36 | 1.03 | 1.16 |  |  |  |  | 0.848 | 0.873 | 0.969 | 0.712 |  |  |  |  | 
6 | NCI-H520 | 0.891 | 0.672 | 0.855 | 1.01 | 0.67 | 0.709 | 0.743 | 0.598 | 0.643 | 0.299 | 0.313 | 0.381 | 0.357 |  |  |  |  | 
7 | NCI-H1793 |  | 0.5 | 0.497 | 0.524 | 0.422 | 0.495 | 0.408 | 0.385 | 0.425 | 0.779 | 0.734 | 1.01 | 0.841 |  | 0.355 | 0.304 | 0.437 | 0.186
8 | NCI-H647 | 1.06 | 1.16 | 1.22 | 1.01 | 1.2 | 0.503 | 0.404 | 0.528 | 0.47 | 0.579 | 0.539 | 0.762 | 0.513 |  | 0.573 | 0.43 | 0.583 | 0.401
9 | HCC-44 |  |  |  |  |  | 1.11 | 0.969 | 0.996 | 1.09 | 0.981 | 1.02 | 0.965 | 0.92 | 0.984 | 1.03 | 1.02 | 1.01 | 0.893
10 | HCC-827 | 1.08 | 0.974 | 1.05 | 0.97 | 0.155 | 0.545 | 0.477 | 0.48 | 0.547 | 0.668 | 0.594 | 0.689 | 0.587 | 0.172 | 0.299 | 0.129 | 0.19 | 0.103
11 | NCI-H2170 | 1.05 | 0.961 | 0.784 | 0.655 | 0.25 | 0.923 | 0.864 | 1.03 | 0.974 | 0.631 | 0.568 | 0.649 | 0.499 | 0.824 | 0.574 | 0.485 | 0.252 | 0.14
12 | Calu-6 | 0.86 | 0.852 | 0.862 | 0.878 | 0.904 |  |  |  |  | 0.572 | 0.576 | 0.698 | 0.614 |  |  |  |  | 
13 | HCC-366 |  | 0.86 | 0.887 | 0.912 | 0.89 | 0.398 | 0.4 | 0.385 | 0.341 | 0.346 | 0.359 | 0.362 | 0.34 |  | 0.245 | 0.205 | 0.247 | 0.133
14 | NCI-H2405 | 1.04 | 0.911 | 1.05 | 1.02 | 0.92 | 0.655 | 0.587 | 0.505 | 0.574 | 0.851 | 0.879 | 0.898 | 0.861 |  | 0.682 |  | 0.759 | 0.617
15 | NCI-H1648 |  |  |  |  |  | 0.564 | 0.45 | 0.63 | 0.491 | 1.13 | 0.76 | 1.3 | 0.679 |  | 0.921 | 0.612 | 0.643 | 0.658
16 | LCLC-97TM1 |  |  | 0.843 | 0.973 | 1.02 | 0.216 | 0.201 | 0.22 | 0.193 | 0.403 | 0.434 | 0.358 | 0.323 |  |  | 0.178 | 0.224 | 0.259
17 | EPLC-272H |  |  | 0.542 | 0.687 | 0.325 | 0.275 | 0.277 | 0.316 | 0.298 | 0.778 | 0.854 | 0.942 | 0.842 |  | 0.191 | 0.228 | 0.175 | 0.252
18 | NCI-H1755 | 0.866 | 0.865 | 0.898 | 0.896 | 0.892 | 0.797 | 0.792 | 0.759 | 0.719 | 0.944 | 0.851 | 0.888 | 0.798 | 0.449 | 0.402 | 0.371 | 0.433 | 0.541
19 | NCI-H1437 | 1.23 | 1.33 | 1.32 | 1.2 | 1.12 | 0.51 | 0.562 | 0.481 | 0.579 | 0.626 | 0.629 | 0.62 | 0.605 | 1.13 | 1.11 | 1.1 | 1.07 | 1.06
20 | PC-3 [JPC-3] | 1.04 | 0.989 | 1.03 | 1.09 | 0.471 | 0.78 | 0.736 | 0.623 | 0.785 | 1.18 | 1.21 | 1.22 | 1.16 |  | 0.477 |  | 0.655 | 0.414
21 | NCI-H727 | 0.617 |  | 0.673 | 0.708 | 0.691 | 0.399 | 0.369 | 0.355 | 0.406 | 0.691 | 0.697 | 0.823 | 0.677 | 0.634 |  | 0.443 | 0.551 | 0.395
